Experimental data published in PubChem BioAssay AID1963828 (Molecular Pharmacology Branch, DTP, NCI, 2024).

Test system: 991263-137-R1-J2-PDC complex spheroid viability
Experiment: Anticancer human tumor 991263-137-R1-J2-PDC patient-derived colon adenocarcinoma cell line growth inhibition [POLQ]
Conditions: for IC50: curve of first compound; for viability, T/C: stronger effect = lower value
Protocol: Multicellular complex tumor spheroid response to Polymerase (POL) inhibitors (novobiocin, ART-558, RP6685) in combination with a variety of drugs and investigational agents in selected tumor cell lines
The POL inhibitors (novobiocin, ART-558, and RP6685) were evaluated both individually and in combination with standard of care and investigational anticancer small molecules within a complex spheroid model of solid tumors. . Complex spheroids include a stromal component modeled by human endothelial cells (HUVEC) and fibroblasts modeled by human mesenchymal stem cells (MSCs). The concentration ranges selected for each drug and investigational agent were based upon clinically achievable concentrations if the clinical Cmax of the agent was known.
Compounds. The drugs and investigational agents: novobiocin (NSC847541), ART-558 (NSC835418), RP-6685 (NSC848927), peposertib (NSC802822), ceralasertib (NSC780249), elimusertib (NSC800525), camonsertib (NSC841442), AZD-1390 (NSC803789), olaparib (NSC753686), talazoparib (NSC767125), rucaparib (NSC756644), sotorasib (NSC818433), MRTX-1133 (NSC836407), SN-38 (NSC673596), topotecan (NSC609699), epotoside (NSC141540), doxorubicin (NSC123127), gemcitabine (NSC613327), 5-fluorouracil (NSC19893), paclitaxel (NSC125973), vemurafenib (NSC761431), MSA-2 (NSC828583), SN-011 (NSC837082), adavosertib (NSC754352), prexasertib (NSC758257), carboplatin (NSC241240) and oxaliplatin (NSC266046), were obtained from the National Cancer Institute (NCI) Developmental Therapeutics Program Chemical Repository (21). The FDA-approved anticancer drug set is available from the Developmental Therapeutics Program at https://dtp.cancer.gov/organization/dscb/obtaining/. […] The stock solutions were prepared in dimethyl sulfoxide (DMSO, Sigma-Aldrich, St. Louis, MO, cat. D2650), except for the platinum compounds which were prepared in saline (Quality Biological, Gaithersburg, MD, cat. 114-055-101), at 800-fold the tested concentration and stored at -70 degrees C prior to their use. All drugs and investigational agents were tested over a range starting from a high concentration at or near the clinical Cmax and decreasing in half-log increments. If the clinical Cmax for an agent had not been determined, the highest concentration tested was 10 microM, except for SN-38, which was tested at a high concentration of 1 microM.
Cell Culture. All cells were maintained in an incubator at 37 degrees C and 5% CO2 with 95% humidity. The PDC lines were cultured according to standard operating procedures established by the NCI PDMR (https://pdmr.cancer.gov). Table 3 of the manuscript, lists the cell lines along with the number of the three cell types plated to form the mct-spheroids and media for tumor cell growth. After thawing, all PDC lines, except 997537-175-T-J1-PDC and 415267-285-R-J2-PDC, were cultured in Matrigel-coated flasks prepared with a working solution of 1X Ham's F-12 nutrient mix, without supplementation (Thermo Fisher Scientific, cat. 11765054), 100 U/mL penicillin-streptomycin (Thermo Fisher Scientific, cat. 15140122), and 2.5% Matrigel (Corning Inc., Corning, NY, cat. 354248) for the first three passages. The two PDC lines 997537-175-T-J1-PDC and 415267-285-R-J2-PDC were cultured on uncoated flasks. The 857933-349-R-J2-PDC line was cultured in 6C/Colon 1B media containing advanced DMEM/F-12 (Thermo Fisher Scientific, cat. 12634028), 10 mM HEPES (Thermo Fisher Scientific, cat. 15630080), 1X GlutaMAX supplement (Thermo Fisher Scientific, cat. 35050061), 0.1 mg/mL primocin (InvivoGen, San Diego, CA, cat. ant-pm-2), 10% defined fetal bovine serum, heat inactivated (HyClone Laboratories Inc., Logan, UT, cat. SH30070.03HI), 50% L-WRN conditioned media (ATCC, cat. CRL-3276), 1.25 mM N-Acetyl-L-cysteine (Sigma-Aldrich, cat. A9165), 10 mM nicotinamide (Sigma-Aldrich, cat. N0636), 1X B-27 supplement (Thermo Fisher Scientific, cat. 17504044), 1X N-2 supplement (Thermo Fisher Scientific, cat. […]

[1] = second compound 0.0316 µM, first compound 0.0316 µM
[2] = second compound 0.0316 µM, first compound 0.1 µM
[3] = second compound 0.0316 µM, first compound 0.316 µM
[4] = second compound 0.0316 µM, first compound 1 µM
[5] = second compound 0.0316 µM, first compound 3.16 µM
[6] = second compound 0.0316 µM, first compound 10 µM
[7] = second compound 0.1 µM, first compound 0.0316 µM
[8] = second compound 0.1 µM, first compound 0.1 µM
[9] = second compound 0.1 µM, first compound 0.316 µM
[10] = second compound 0.1 µM, first compound 1 µM
[11] = second compound 0.1 µM, first compound 3.16 µM
[12] = second compound 0.1 µM, first compound 10 µM
[13] = second compound 0.316 µM, first compound 0.0316 µM
[14] = second compound 0.316 µM, first compound 0.1 µM
[15] = second compound 0.316 µM, first compound 0.316 µM
[16] = second compound 0.316 µM, first compound 1 µM
[17] = second compound 0.316 µM, first compound 3.16 µM
[18] = second compound 0.316 µM, first compound 10 µM
[19] = second compound 1 µM, first compound 0.0316 µM
[20] = second compound 1 µM, first compound 0.1 µM
[21] = second compound 1 µM, first compound 0.316 µM
[22] = second compound 1 µM, first compound 1 µM
[23] = second compound 1 µM, first compound 3.16 µM
[24] = second compound 1 µM, first compound 10 µM
[25] = second compound 3.16 µM, first compound 0.0316 µM
[26] = second compound 3.16 µM, first compound 0.1 µM
[27] = second compound 3.16 µM, first compound 0.316 µM
[28] = second compound 3.16 µM, first compound 1 µM
[29] = second compound 3.16 µM, first compound 3.16 µM
[30] = second compound 3.16 µM, first compound 10 µM
[31] = second compound 10 µM, first compound 0.0316 µM
[32] = second compound 10 µM, first compound 0.1 µM
[33] = second compound 10 µM, first compound 0.316 µM
[34] = second compound 10 µM, first compound 1 µM
[35] = second compound 10 µM, first compound 3.16 µM
[36] = second compound 10 µM, first compound 10 µM
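Also: spheroids exposed to compounds for 7 days before readout.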
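For viability, T/C in this document: 100% = DMSO vehicle control viability.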

SMILES: CC1COCCN1c1cc(C2(S(C)(=N)=O)CC2)nc(-c2ccnc3[nH]ccc23)n1 (centres undefined) + Nc1ccc(C#CCN(C(=O)Cc2ncc(C(F)(F)F)cc2C(F)(F)F)c2ccc(F)cc2)nn1
- IC50 (second compound 0.0316 µM): > 10 µM
- IC50 (second compound 0.1 µM): > 10 µM
- IC50 (second compound 0.316 µM): > 10 µM
- IC50 (second compound 1 µM): > 10 µM
- IC50 (second compound 3.16 µM): > 10 µM
- IC50 (second compound 10 µM): > 10 µM
- viability, T/C [1]: 100%
- viability, T/C [2]: 104%
- viability, T/C [3]: 108%
- viability, T/C [4]: 109%
- viability, T/C [5]: 97.5%
- viability, T/C [6]: 86%
- viability, T/C [7]: 114%
- viability, T/C [8]: 110%
- viability, T/C [9]: 93.9%
- viability, T/C [10]: 105%
- viability, T/C [11]: 108%
- viability, T/C [12]: 97.2%
- viability, T/C [13]: 97.7%
- viability, T/C [14]: 103%
- viability, T/C [15]: 110%
- viability, T/C [16]: 103%
- viability, T/C [17]: 108%
- viability, T/C [18]: 89.2%
- viability, T/C [19]: 119%
- viability, T/C [20]: 109%
- viability, T/C [21]: 106%
- viability, T/C [22]: 106%
- viability, T/C [23]: 104%
- viability, T/C [24]: 85.1%
- viability, T/C [25]: 101%
- viability, T/C [26]: 102%
- viability, T/C [27]: 102%
- viability, T/C [28]: 97.5%
- viability, T/C [29]: 101%
- viability, T/C [30]: 83.9%
- viability, T/C [31]: 109%
- viability, T/C [32]: 106%
- viability, T/C [33]: 115%
- viability, T/C [34]: 99.5%
- viability, T/C [35]: 93.4%
- viability, T/C [36]: 63.6%

SMILES: CCCS(=O)(=O)Nc1ccc(F)c(C(=O)c2c[nH]c3ncc(-c4ccc(Cl)cc4)cc23)c1F + Nc1ccc(C#CCN(C(=O)Cc2ncc(C(F)(F)F)cc2C(F)(F)F)c2ccc(F)cc2)nn1
- IC50 (second compound 0.0316 µM): > 10 µM
- IC50 (second compound 0.1 µM): > 10 µM
- IC50 (second compound 0.316 µM): > 10 µM
- IC50 (second compound 1 µM): > 10 µM
- IC50 (second compound 3.16 µM): > 10 µM
- IC50 (second compound 10 µM): > 10 µM
- viability, T/C [1]: 114%
- viability, T/C [2]: 98.2%
- viability, T/C [3]: 103%
- viability, T/C [4]: 107%
- viability, T/C [5]: 117%
- viability, T/C [6]: 102%
- viability, T/C [7]: 97.6%
- viability, T/C [8]: 101%
- viability, T/C [9]: 97.2%
- viability, T/C [10]: 110%
- viability, T/C [11]: 103%
- viability, T/C [12]: 103%
- viability, T/C [13]: 105%
- viability, T/C [14]: 114%
- viability, T/C [15]: 108%
- viability, T/C [16]: 98.7%
- viability, T/C [17]: 128%
- viability, T/C [18]: 95.1%
- viability, T/C [19]: 93.9%
- viability, T/C [20]: 102%
- viability, T/C [21]: 112%
- viability, T/C [22]: 117%
- viability, T/C [23]: 117%
- viability, T/C [24]: 107%
- viability, T/C [25]: 117%
- viability, T/C [26]: 97.3%
- viability, T/C [27]: 111%
- viability, T/C [28]: 93.2%
- viability, T/C [29]: 111%
- viability, T/C [30]: 115%
- viability, T/C [31]: 90.2%
- viability, T/C [32]: 112%
- viability, T/C [33]: 95.7%
- viability, T/C [34]: 104%
- viability, T/C [35]: 115%
- viability, T/C [36]: 116%
